Data from publication PMC2680961, “Homologous desensitization of signalling by the alpha (α) isoform of the human thromboxane A2 receptor: A specific role for nitric oxide signalling” (Biochimica et Biophysica Acta, 2007).

Columns and labels:
TP^Δ328 = target: T1, TP^Δ328 (Homo sapiens, UniProt P21731); experiment: [3H]SQ29,548 radioligand binding, Scatchard analysis, HEK.TP^Δ328
T1 construct: expressed in transfected cells
T1 sequence (P21731 1-328): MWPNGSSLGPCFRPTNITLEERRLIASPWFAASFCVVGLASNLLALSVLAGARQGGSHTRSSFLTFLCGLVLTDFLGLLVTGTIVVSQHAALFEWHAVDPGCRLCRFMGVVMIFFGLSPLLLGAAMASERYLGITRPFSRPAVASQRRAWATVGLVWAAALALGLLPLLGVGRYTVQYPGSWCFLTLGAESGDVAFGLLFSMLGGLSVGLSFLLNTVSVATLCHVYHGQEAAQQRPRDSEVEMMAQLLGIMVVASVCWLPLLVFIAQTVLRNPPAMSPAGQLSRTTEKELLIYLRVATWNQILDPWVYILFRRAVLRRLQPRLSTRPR
Method: Cells were harvested by centrifugation at 500×g at 4 °C for 5 min and washed three times with ice-cold Ca^2+/Mg^2+-free phosphate-buffered saline (PBS). TP radioligand binding assays were carried out at 30 °C for 30 min in 100 μl reactions in the presence of 0–40 nM [^3H] […] Protein determinations were carried out using the Bradford assay.
Radioligand binding and Scatchard analysis data were analysed using GraphPad Prisim V4.0 programme (GraphPad Software Inc., San Diego CA, USA). Statistical analyses were carried out using the unpaired Student's t test using the Statworks Analysis Package. p-values ≤ 0.01 indicated statistically significant differences.

TPα^S331A = target: T2, TPα^S331A (Homo sapiens, UniProt P21731, S331A); experiment: Intracellular calcium mobilization, HEK.TPα^S331A cells; format: cell-based; settings: for Δ[Ca2+]i, U46619-induced: HEK.TPα^S331A
T2 construct: expressed in transfected cells
T2 sequence (P21731 1-343 S331A): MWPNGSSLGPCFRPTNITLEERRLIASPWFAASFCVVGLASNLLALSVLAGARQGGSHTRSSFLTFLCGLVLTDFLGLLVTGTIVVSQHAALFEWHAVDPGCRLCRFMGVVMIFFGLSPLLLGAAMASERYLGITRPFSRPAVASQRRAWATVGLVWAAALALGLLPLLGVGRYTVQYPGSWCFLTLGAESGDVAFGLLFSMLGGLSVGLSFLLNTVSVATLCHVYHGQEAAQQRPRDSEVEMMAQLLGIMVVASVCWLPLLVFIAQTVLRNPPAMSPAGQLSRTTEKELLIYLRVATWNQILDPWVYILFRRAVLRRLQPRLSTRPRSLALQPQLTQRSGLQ
Method: (§1) Measurement of intracellular calcium mobilization ([Ca^2+]i) in FURA2/AM preloaded HEK 293 cell lines (2 × 10^6 cells/dish), each transiently co-transfected with pADVA (10 μg), and pCMV:Gαq (25 μg), was carried out as previously described. To investigate the effect of GRK2/βARK1 on TP-mediated [Ca^2+]i mobilization, HEK.TPα or HEK.TPβ cells (2 × 10^6 cells/dish) were co-transfected with pADVA (10 μg), pCMV:Gαq (25 μg) along with pRK5:βARK1^495–689 (25 μg), encoding a dominant negative form of GRK2/βARK1[39]. Approximately 48 h post-transfection, cells were harvested by scraping, washed twice in ice-cold PBS and resuspended in HBSSHB (modified Ca^2+/Mg^2+-free Hank's buffered salt solution, containing 10 μM HEPES, pH 7.67, 0.1% bovine serum albumin (BSA)) buffer at 10^7 cells/ml and incubated in the dark with 5 μM FURA2/AM for 45 min at 37 °C. […] For each measurement of [Ca^2+]i mobilization, aliquots of cells were diluted to 0.825 × 10^6 cells/ml in HBSSHB, 1 mM CaCl2 and FURA2 fluorescence was recorded (2 ml aliquots of cells) at 37^ °C with gentle stirring with a Perkin Elmer-Cetus LS50-B spectrofluorometer at excitation wavelengths of 340 nm and 380 nm and emission wavelength of 510 nm, respectively.
Cells were stimulated with the TP agonist U46619 (1 μM) and changes in [Ca^2+]i mobilization were monitored as a function of time. To assess agonist-mediated homologous desensitization, cells (0.825 × 10^6 cells/ml; 2 ml per assay) were stimulated with 1 μM U46619 (Primary stimulation) or, as a control, with the vehicle for 4 min; thereafter, cells were collected by centrifugation (900×g, 5 min); were washed twice in 2 ml HBSSHB, 1 mM CaCl2; and finally resuspended in 2 ml HBSSHB,1 mM CaCl2 and were left to recover over various time intervals (ranging from 0 to 60 min); thereafter, cells re-stimulated with 1 μM U46619 (Secondary stimulation) and changes in [Ca^2+]i mobilization were monitored as a function of time. […]

TPα^S331,340A = target: T3, TPα^S331,340A (Homo sapiens, UniProt P21731, S331A/S340A); experiment: Intracellular calcium mobilization, HEK.TPα^S331,340A cells; format: cell-based
T3 construct: expressed in transfected cells
Method: as §1, with “GRK2/βARK1[39].” for “GRK2/βARK1[39]. Approximately 48 h post-transfection, cells were harvested by scraping, washed twice in ice-cold PBS and resuspended in HBSSHB (modified Ca^2+/Mg^2+-free Hank's buffered salt solution, containing 10 μM HEPES, pH 7.67, 0.1% bovine serum albumin (BSA)) buffer at 10^7 cells/ml and incubated in the dark with 5 μM FURA2/AM for 45 min at 37 °C.”
Cells were stimulated with the TP agonist U46619 (1 μM) and changes in [Ca^2+]i mobilization were monitored as a function of time. […]
The vehicle had no effect on U46619-mediated [Ca^2+]i mobilization. Calibration of the signal was performed in each sample by adding 0.2% Triton X-100 to obtain the maximal fluorescence ratio (Rmax) and then 1 mM EGTA to obtain the minimal fluorescence ratio (Rmin). […]

[1] = secondary 1 μM U46619 at 15 min

T3 sequence (P21731 whole entry S331A/S340A): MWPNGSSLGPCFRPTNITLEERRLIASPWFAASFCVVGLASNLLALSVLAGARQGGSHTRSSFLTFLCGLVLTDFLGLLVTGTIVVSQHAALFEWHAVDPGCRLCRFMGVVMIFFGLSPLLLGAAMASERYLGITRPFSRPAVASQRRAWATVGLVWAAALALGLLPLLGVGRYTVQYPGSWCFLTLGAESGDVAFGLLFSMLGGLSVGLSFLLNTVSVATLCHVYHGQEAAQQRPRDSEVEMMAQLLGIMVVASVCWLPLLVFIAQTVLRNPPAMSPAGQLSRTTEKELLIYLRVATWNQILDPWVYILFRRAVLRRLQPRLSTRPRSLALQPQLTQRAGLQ

Row | SMILES | Bmax (pmol/mg protein ± S.E.M.) (TP^Δ328) | Δ[Ca2+]i, U46619-induced (TPα^S331A; primary 1 μM U46619 4 min) | Δ[Ca2+]i, U46619-induced (TPα^S331A; [1]) | secondary U46619 [Ca2+]i response relative to primary response (TPα^S331A; TPα^S331A) | Δ[Ca2+]i, U46619-induced (TPα^S331,340A; primary 1 μM U46619 4 min) | Δ[Ca2+]i, U46619-induced (TPα^S331,340A; [1])
1 | O=C(O)CCC/C=C\C[C@@H]1[C@H](CNNC(=O)Nc2ccccc2)[C@H]2CC[C@@H]1O2 [SQ29,548] | 4.47 ± 0.04 pmol/mg protein |  |  |  |  | 
2 | CCCCC[C@H](O)/C=C/[C@@H]1[C@@H](C/C=C\CCCC(=O)O)[C@H]2CO[C@@H]1C2 [U46619] |  | 207 ± 9.1 nM | 80 ± 6.8 nM | 39% | 160 ± 7.2 nM | 60 ± 10 nM
